Assay results: ChEMBL document CHEMBL2413072, “Synthesis and in vitro anticancer studies of novel C-2 arylidene congeners of lantadenes” (2013)

Experiments:
Type in all cases: functional
NCI-H226 = assay: Growth inhibition of human NCI-H226 cells assessed as growth inhibition at 10 uM by sulforhodamine B assay; conditions: read-out: GI
HCT-15 [1] = assay: Growth inhibition of human HCT15 cells assessed as cell growth at 10 uM by sulforhodamine B assay; conditions: read-out: Activity
HT-29 = assay: Growth inhibition of human HT-29 cells assessed as cell growth at 10 uM by sulforhodamine B assay; conditions: read-out: Activity
OVCAR-5 [2] = assay: Growth inhibition of human OVCAR5 cells assessed as cell growth at 10 uM by sulforhodamine B assay; conditions: read-out: Activity
SF-295 [3] = assay: Growth inhibition of human SF295 cells assessed as cell growth at 10 uM by sulforhodamine B assay; conditions: read-out: Activity
MOLT-4 [4] = assay: Growth inhibition of human MOLT4 cells assessed as cell growth at 10 uM by sulforhodamine B assay; conditions: read-out: Activity
MDA-MB-468 [5] = assay: Growth inhibition of human MDA-MB-468 cells assessed as cell growth at 10 uM by sulforhodamine B assay; conditions: read-out: Activity
SK-MEL-2 = assay: Growth inhibition of human SK-MEL-2 cells assessed as cell growth at 10 uM by sulforhodamine B assay; conditions: read-out: Activity
NCI-H460 = assay: Growth inhibition of human NCI-H460 cells assessed as growth inhibition at 10 uM by sulforhodamine B assay; conditions: read-out: GI
NCI-H23 [6] = assay: Growth inhibition of human NCI-H23 cells assessed as cell growth at 10 uM by sulforhodamine B assay; conditions: read-out: Activity
HOP-62 = assay: Growth inhibition of human HOP62 cells assessed as cell growth at 10 uM by sulforhodamine B assay; conditions: read-out: Activity
UACC-257 = assay: Growth inhibition of human UACC257 cells assessed as cell growth at 10 uM by sulforhodamine B assay; conditions: read-out: Activity
786-0 [7] = assay: Growth inhibition of human 786-0 cells assessed as growth inhibition at 10 uM by sulforhodamine B assay; conditions: read-out: GI
OVCAR-3 [8] = assay: Growth inhibition of human OVCAR3 cells assessed as cell growth at 10 uM by sulforhodamine B assay; conditions: read-out: Activity
[9] = Growth inhibition of human NCI-ADR-RES cells assessed as growth inhibition at 10 uM by sulforhodamine B assay; conditions: read-out: GI
SF-295 [10] = assay: Growth inhibition of human SF295 cells assessed as growth inhibition at 10 uM by sulforhodamine B assay; conditions: read-out: GI
NCI-H522 = assay: Growth inhibition of human NCI-H522 cells assessed as cell growth at 10 uM by sulforhodamine B assay; conditions: read-out: Activity
UACC-62 [11] = assay: Growth inhibition of human UACC62 cells assessed as cell growth at 10 uM by sulforhodamine B assay; conditions: read-out: Activity
MDA-MB-435 [12] = assay: Growth inhibition of human MDA-MB-435 cells assessed as cell growth at 10 uM by sulforhodamine B assay; conditions: read-out: Activity
DU-145 = assay: Growth inhibition of human DU145 cells assessed as growth inhibition at 10 uM by sulforhodamine B assay; conditions: read-out: GI
HL-60(TB) [13] = assay: Growth inhibition of human HL-60(TB) cells assessed as growth inhibition at 10 uM by sulforhodamine B assay; conditions: read-out: GI
SK-MEL-28 [14] = assay: Growth inhibition of human SK-MEL-28 cells assessed as cell growth at 10 uM by sulforhodamine B assay; conditions: read-out: Activity
HCT-15 [15] = assay: Growth inhibition of human HCT15 cells assessed as growth inhibition at 10 uM by sulforhodamine B assay; conditions: read-out: GI
SNB-19 = assay: Growth inhibition of human SNB19 cells assessed as cell growth at 10 uM by sulforhodamine B assay; conditions: read-out: Activity
MDA-MB-468 [16] = assay: Growth inhibition of human MDA-MB-468 cells assessed as growth inhibition at 10 uM by sulforhodamine B assay; conditions: read-out: GI
OVCAR-3 [17] = assay: Growth inhibition of human OVCAR3 cells assessed as growth inhibition at 10 uM by sulforhodamine B assay; conditions: read-out: GI
[18] = Growth inhibition of human EKVX cells assessed as growth inhibition at 10 uM by sulforhodamine B assay; conditions: read-out: GI
RPMI-8226 = assay: Growth inhibition of human RPMI8226 cells assessed as growth inhibition at 10 uM by sulforhodamine B assay; conditions: read-out: GI
MDA-MB-435 [19] = assay: Growth inhibition of human MDA-MB-435 cells assessed as growth inhibition at 10 uM by sulforhodamine B assay; conditions: read-out: GI
NCI-H322M [20] = assay: Growth inhibition of human NCI-H322M cells assessed as cell growth at 10 uM by sulforhodamine B assay; conditions: read-out: Activity
HL-60(TB) [21] = assay: Growth inhibition of human HL-60(TB) cells assessed as cell growth at 10 uM by sulforhodamine B assay; conditions: read-out: Activity
786-0 [22] = assay: Growth inhibition of human 786-0 cells assessed as cell growth at 10 uM by sulforhodamine B assay; conditions: read-out: Activity
U-251 = assay: Growth inhibition of human U251 cells assessed as cell growth at 10 uM by sulforhodamine B assay; conditions: read-out: Activity
A498 = assay: Growth inhibition of human A498 cells assessed as growth inhibition at 10 uM by sulforhodamine B assay; conditions: read-out: GI
M14 = assay: Growth inhibition of human M14 cells assessed as cell growth at 10 uM by sulforhodamine B assay; conditions: read-out: Activity
NCI-H322M [23] = assay: Growth inhibition of human NCI-H322M cells assessed as growth inhibition at 10 uM by sulforhodamine B assay; conditions: read-out: GI
COLO 205 = assay: Growth inhibition of human COLO205 cells assessed as growth inhibition at 10 uM by sulforhodamine B assay; conditions: read-out: GI
HCT-116 = assay: Growth inhibition of human HCT116 cells assessed as growth inhibition at 10 uM by sulforhodamine B assay; conditions: read-out: GI
MOLT-4 [24] = assay: Growth inhibition of human MOLT4 cells assessed as growth inhibition at 10 uM by sulforhodamine B assay; conditions: read-out: GI
OVCAR-5 [25] = assay: Growth inhibition of human OVCAR5 cells assessed as growth inhibition at 10 uM by sulforhodamine B assay; conditions: read-out: GI
UACC-62 [26] = assay: Growth inhibition of human UACC62 cells assessed as growth inhibition at 10 uM by sulforhodamine B assay; conditions: read-out: GI
ACHN = assay: Growth inhibition of human ACHN cells assessed as cell growth at 10 uM by sulforhodamine B assay; conditions: read-out: Activity
SNB-75 = assay: Growth inhibition of human SNB75 cells assessed as cell growth at 10 uM by sulforhodamine B assay; conditions: read-out: Activity
TK-10 = assay: Growth inhibition of human TK10 cells assessed as growth inhibition at 10 uM by sulforhodamine B assay; conditions: read-out: GI
IGROV-1 = assay: Growth inhibition of human IGROV1 cells assessed as growth inhibition at 10 uM by sulforhodamine B assay; conditions: read-out: GI
[27] = Growth inhibition of human HCC2998 cells assessed as cell growth at 10 uM by sulforhodamine B assay; conditions: HCC 2998, read-out: Activity
SK-MEL-28 [28] = assay: Growth inhibition of human SK-MEL-28 cells assessed as growth inhibition at 10 uM by sulforhodamine B assay; conditions: read-out: GI
SK-OV-3 = assay: Growth inhibition of human SKOV3 cells assessed as growth inhibition at 10 uM by sulforhodamine B assay; conditions: read-out: GI
NCI-H23 [29] = assay: Growth inhibition of human NCI-H23 cells assessed as growth inhibition at 10 uM by sulforhodamine B assay; conditions: read-out: GI

In the case of `CC1(C)C[C@@H](O)[C@]2(C(=O)O)CC[C@]3(C)C(=CC[C@@H]4[C@@]5(C)CC[C@H](O)C(C)(C)[C@@H]5CC[C@]43C)[C@@H]2C1`, the inhibition of growth at 10 µM (NCI-H226) is reported as less than 10%, the growth at 10 µM (HCT-15 [1]) is reported as 96.5% and the growth at 10 µM (HT-29) is reported as 109%. The growth at 10 µM (OVCAR-5 [2]) was 119%, the growth at 10 µM (SF-295 [3]) was 153% and the growth at 10 µM (MOLT-4 [4]) was 78.3%. It also gave a growth at 10 µM (MDA-MB-468 [5]) of 111%, a growth at 10 µM (SK-MEL-2) of 97.9% and an inhibition of growth at 10 µM (NCI-H460) of less than 10%. It also gave a growth at 10 µM (NCI-H23 [6]) of 102%, a growth at 10 µM (HOP-62) of 98.9% and a growth at 10 µM (UACC-257) of 107%. It also gave an inhibition of growth at 10 µM (786-0 [7]) of 13.8%, a growth at 10 µM (OVCAR-3 [8]) of 101% and an inhibition of growth at 10 µM [9] of less than 10%. For the same compound, the inhibition of growth at 10 µM (SF-295 [10]) was less than 10%, the growth at 10 µM (NCI-H522) was 95.3% and the growth at 10 µM (UACC-62 [11]) was 88.2%. It also gave a growth at 10 µM (MDA-MB-435 [12]) of 116%, an inhibition of growth at 10 µM (DU-145) of less than 10% and an inhibition of growth at 10 µM (HL-60(TB) [13]) of 18%. It also gave a growth at 10 µM (SK-MEL-28 [14]) of 95.6%, an inhibition of growth at 10 µM (HCT-15 [15]) of less than 10% and a growth at 10 µM (SNB-19) of 98.2%. It also gave an inhibition of growth at 10 µM (MDA-MB-468 [16]) of 88.8%, an inhibition of growth at 10 µM (OVCAR-3 [17]) of less than 10% and an inhibition of growth at 10 µM [18] of less than 10%. For the same compound, the inhibition of growth at 10 µM (RPMI-8226) was 10.7%, the inhibition of growth at 10 µM (MDA-MB-435 [19]) was less than 10% and the growth at 10 µM (NCI-H322M [20]) was 99%. For the same compound, the growth at 10 µM (HL-60(TB) [21]) was 82%, the growth at 10 µM (786-0 [22]) was 90.7% and the growth at 10 µM (U-251) was 91.8%. It also gave an inhibition of growth at 10 µM (A498) of less than 10%, a growth at 10 µM (M14) of 93.6% and an inhibition of growth at 10 µM (NCI-H322M [23]) of less than 10%. For the same compound, the inhibition of growth at 10 µM (COLO 205) was less than 10%, the inhibition of growth at 10 µM (HCT-116) was 17.3% and the inhibition of growth at 10 µM (MOLT-4 [24]) was 21.7%. The inhibition of growth at 10 µM (OVCAR-5 [25]) was less than 10%, the inhibition of growth at 10 µM (UACC-62 [26]) was 11.8% and the growth at 10 µM (ACHN) was 102%. It also gave a growth at 10 µM (SNB-75) of 97.7%, an inhibition of growth at 10 µM (TK-10) of less than 10% and an inhibition of growth at 10 µM (IGROV-1) of less than 10%. The growth at 10 µM [27] was 109%, the inhibition of growth at 10 µM (SK-MEL-28 [28]) was less than 10% and the inhibition of growth at 10 µM (SK-OV-3) was less than 10%. It also gave an inhibition of growth at 10 µM (NCI-H23 [29]) of less than 10%.
